Patent US6100074A, “Mutant mono-oxygenase cytochrome P-450 cam” (BG plc, priority 1994, dated 2000)

Columns and labels:
[1] = biological target: T1, P450cam mutant Y96A, C334A (Pseudomonas putida, UniProt P00183, C335A/Y97A); assay type: biochemical, P. putida; conditions: also contains C334A
T1 construct: reconstituted with putidaredoxin and putidaredoxin reductase
Procedure: A solution containing 10 μM putidaredoxin, 2 μM putidaredoxin reductase, 1 μM cytochrome P-450cam mono-oyxgenase (wild-type or mutant) and 1 mM diphenylmethane in 100 mM KC1, 20 mM KH2 PO4 pH7.4 was preincubated at 25° C. in a shaker for 5 min. The enzymatic reaction was initiated by firstly adding NADH to a total concentration of 2 mM. Further four aliquots of NADH (to increase the NADH concentration by 1 mM each time) were added in intervals of 5 min and the reaction quenched after 30 min by adding 0.5 ml chloroform. The chloroform layer was analysed by gas chromatography.
(§1) Reaction products for some substrate compounds have been purified by high performance liquid chromatography and identified by mass spectroscopy, nuclear magnetic resonance, and/or co-elution. […] Table 4(a) to 4(h) details the product distributions for mutant and substrate combinations where this has been elucidated to date.
All mutants listed below also contain the C334A mutation.
Turnover rate measured as NADH consumption rate
(nmole NADH/nmole P450cam/s).

wild type P450cam [2] = biological target: T2, wild type P450cam (Pseudomonas putida, UniProt P00183); test: Turnover rate measured as NADH consumption rate, wild type; assay type: biochemical, P. putida; design: reconstituted with putidaredoxin and putidaredoxin reductase
P-450cam mutant Y96A [3] = biological target: T3, P-450cam mutant Y96A (Pseudomonas putida, UniProt P00183, Y97A); test: biochemical; assay type: binding; conditions: for percent displacement of bound DTT at 200 µM: Mutant Y96A, 200 μM DTT, 200 μM test compound
P-450cam mutant Y96A [4] = biological target: T3, P-450cam mutant Y96A; assay type: biochemical; design: key: Those substrates where oxidation has been demonstrated by means of NADH turnover are marked with a + sign
[5] = biological target: T1, P450cam mutant Y96A, C334A; assay type: biochemical, P. putida
Procedure: (§2) […] The enzymatic reaction was initiated by firstly adding NADH to a total concentration of 2 mM. Further four aliquots of NADH (to increase the NADH concentration by 1 mM each time) were added in intervals of 5 min and the reaction quenched after 30 min by adding 0.5 ml chloroform. The chloroform layer was analysed by gas chromatography.
as §1
(§3) Product structure and distributions following oxidation of substrates
(§4) active site mutants. All mutants shown below also contain the C334A

[6] = biological target: T4, P450cam mutant Y96F, C334A (Pseudomonas putida, UniProt P00183, C335A/Y97F); assay type: biochemical, P. putida
T4 construct: reconstituted with putidaredoxin and putidaredoxin reductase
Procedure: as §2, §1, §3, §4

[7] = biological target: T5, P450cam mutant F87A-F96G-F193A (C334A) (Pseudomonas putida, UniProt P00183, C335A/F194A/F88A/Y97G); assay type: biochemical, P. putida
T5 construct: reconstituted with putidaredoxin and putidaredoxin reductase
Procedure: as §2, §1, §3, §4

[8] = biological target: T6, P450cam mutant Y96L, C334A (Pseudomonas putida, UniProt P00183, C335A/Y97L); test: Product distribution following oxidation of substrates, Y96L (also C334A); assay type: biochemical, P. putida
T6 construct: reconstituted with putidaredoxin and putidaredoxin reductase
Procedure: as §2, §1, §3, §4

[9] = biological target: T7, P450cam mutant Y96V, C334A (Pseudomonas putida, UniProt P00183, C335A/Y97V); test: Product distribution following oxidation of substrates, Y96V (also C334A); assay type: biochemical, P. putida
T7 construct: reconstituted with putidaredoxin and putidaredoxin reductase
Procedure: as §2, §1, §3, §4

wild type P450cam [10] = biological target: T2, wild type P450cam; test: Product distribution following oxidation of substrates, WT; assay type: biochemical, P. putida; design: reconstituted with putidaredoxin and putidaredoxin reductase
Procedure: as §2, §1, §3

[11] = phosphate buffer, read-out: Vs DTT (percentage displacement of DTT bound to P-450)

T4 sequence (P16640 whole entry): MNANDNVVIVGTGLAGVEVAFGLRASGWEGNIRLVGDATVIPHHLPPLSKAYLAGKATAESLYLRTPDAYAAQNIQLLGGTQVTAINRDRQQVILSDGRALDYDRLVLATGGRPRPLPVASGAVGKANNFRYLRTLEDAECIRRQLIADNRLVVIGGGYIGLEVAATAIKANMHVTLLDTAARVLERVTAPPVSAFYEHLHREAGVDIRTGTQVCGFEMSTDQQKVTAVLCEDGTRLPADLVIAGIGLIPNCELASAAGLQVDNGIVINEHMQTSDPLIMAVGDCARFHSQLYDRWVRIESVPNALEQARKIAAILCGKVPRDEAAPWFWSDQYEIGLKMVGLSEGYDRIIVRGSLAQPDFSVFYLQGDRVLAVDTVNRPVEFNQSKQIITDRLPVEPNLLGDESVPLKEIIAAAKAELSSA
T4 sequence (P00183 2-415 Y97F/C335A): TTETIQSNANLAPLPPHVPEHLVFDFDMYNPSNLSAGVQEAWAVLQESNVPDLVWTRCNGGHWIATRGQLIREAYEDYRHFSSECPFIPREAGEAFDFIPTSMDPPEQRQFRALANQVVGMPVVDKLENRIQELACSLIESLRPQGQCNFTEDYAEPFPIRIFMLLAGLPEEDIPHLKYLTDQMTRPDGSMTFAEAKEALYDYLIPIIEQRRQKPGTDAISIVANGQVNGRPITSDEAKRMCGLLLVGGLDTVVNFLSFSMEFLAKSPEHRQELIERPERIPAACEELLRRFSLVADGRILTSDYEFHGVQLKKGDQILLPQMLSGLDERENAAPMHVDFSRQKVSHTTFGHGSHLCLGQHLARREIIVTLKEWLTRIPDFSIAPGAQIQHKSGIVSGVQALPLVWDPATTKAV
T4 sequence (P00259 whole entry, further chain): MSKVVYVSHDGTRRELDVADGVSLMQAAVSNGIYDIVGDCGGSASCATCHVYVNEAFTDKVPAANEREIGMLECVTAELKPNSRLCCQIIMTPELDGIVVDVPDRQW
T7 sequence (P16640 whole entry): as the sequence (P16640 whole entry) above
T7 sequence (P00259 whole entry, further chain): as the sequence (P00259 whole entry, further chain) above
T7 sequence (P00183 2-415 Y97V/C335A): as the sequence (P00183 2-415 Y97F/C335A) above, with F96V counted along it
T3 sequence (P00183 2-415 Y97A): as the sequence (P00183 2-415 Y97F/C335A) above, with F96A, A334C counted along it
T1 sequence (P00259 whole entry): as the sequence (P00259 whole entry, further chain) above
T1 sequence (P00183 2-415 Y97A/C335A): as the sequence (P00183 2-415 Y97F/C335A) above, with F96A counted along it
T1 sequence (P16640 whole entry, further chain): as the sequence (P16640 whole entry) above
T5 sequence (P00259 whole entry): as the sequence (P00259 whole entry, further chain) above
T5 sequence (P16640 whole entry, further chain): as the sequence (P16640 whole entry) above
T5 sequence (P00183 2-415 F88A/Y97G/F194A/C335A): as the sequence (P00183 2-415 Y97F/C335A) above, with F87A, F96G, F193A counted along it
T2 sequence (P00259 whole entry): as the sequence (P00259 whole entry, further chain) above
T2 sequence (P00183 whole entry): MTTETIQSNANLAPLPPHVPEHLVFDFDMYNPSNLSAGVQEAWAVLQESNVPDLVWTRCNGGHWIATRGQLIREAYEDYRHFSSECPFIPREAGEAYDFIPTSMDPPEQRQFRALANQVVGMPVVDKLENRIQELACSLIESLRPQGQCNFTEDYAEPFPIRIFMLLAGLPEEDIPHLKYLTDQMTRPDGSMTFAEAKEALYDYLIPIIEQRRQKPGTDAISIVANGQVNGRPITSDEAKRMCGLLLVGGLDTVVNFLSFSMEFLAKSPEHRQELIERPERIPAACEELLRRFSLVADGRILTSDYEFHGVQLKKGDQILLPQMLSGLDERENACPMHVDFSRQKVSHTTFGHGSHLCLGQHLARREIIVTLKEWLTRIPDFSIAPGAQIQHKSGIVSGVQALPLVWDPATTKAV
T2 sequence (P16640 whole entry, further chain): as the sequence (P16640 whole entry) above
T6 sequence (P00259 whole entry): as the sequence (P00259 whole entry, further chain) above
T6 sequence (P16640 whole entry, further chain): as the sequence (P16640 whole entry) above
T6 sequence (P00183 2-415 Y97L/C335A): as the sequence (P00183 2-415 Y97F/C335A) above, with F96L counted along it

`CC(C)CC(C)(C)C` [2,2,4-trimethyl pentane] was tested, and the “Turnover rate measured as NADH consumption rate” value (from here on “Turnover rate measured”) [1] was 5.3 nmole NADH/nmole P450cam/s and the “Turnover rate measured” value (wild type P450cam [2]) was 0.9 nmole NADH/nmole P450cam/s.

`CCCC(C)(C)C` [2,2-dimethyl pentane] was tested, and the “Turnover rate measured” value [1] was 12.8 nmole NADH/nmole P450cam/s and the “Turnover rate measured” value (wild type P450cam [2]) was 5.2 nmole NADH/nmole P450cam/s.

`CC(C)CC(C)C` [2,4-dimethyl pentane] was tested, and the “Turnover rate measured” value [1] was 12.6 nmole NADH/nmole P450cam/s and the “Turnover rate measured” value (wild type P450cam [2]) was 0.2 nmole NADH/nmole P450cam/s.

For `CCCC(C)C` [2-methyl pentane], the “Turnover rate measured” value [1] was 11.7 nmole NADH/nmole P450cam/s and the “Turnover rate measured” value (wild type P450cam [2]) was 3.8 nmole NADH/nmole P450cam/s.

For `CCC(C)CC` [3-methyl pentane], the “Turnover rate measured” value [1] was 14.2 nmole NADH/nmole P450cam/s and the “Turnover rate measured” value (wild type P450cam [2]) was 1.3 nmole NADH/nmole P450cam/s.

`CCCC(C)CCC` [4-methyl heptane] was tested, and the “Turnover rate measured” value [1] was 10.2 nmole NADH/nmole P450cam/s and the “Turnover rate measured” value (wild type P450cam [2]) was 1.4 nmole NADH/nmole P450cam/s.

`C1CCCCC1` [Cyclohexane] was tested, and the percent displacement of bound DTT at 200 µM (P-450cam mutant Y96A [3]; [11]) was 60% and the “NADH turnover?” value (P-450cam mutant Y96A [4]) was “+”.

In the case of `CCCCCC` [Hexane], the “Vs DTT (percentage displacement of DTT bound to P-450)” value (P-450cam mutant Y96A [3]; phosphate buffer, 200 µM) was 40, the inhibition at 200 µM (P-450cam mutant Y96A [3]; read-out: Vs DTT (percentage displacement of DTT bound to P-450)) was 60% and the “NADH turnover?” value (P-450cam mutant Y96A [4]) was “+”. For the same molecule, the “Turnover rate measured” value [1] was 6.0 nmole NADH/nmole P450cam/s, the “Relative activity (WT = 1)” value [5] was 25.5 and the “Relative activity (WT = 1)” value [6] was 18.2.

With `c1ccc2ccccc2c1` [Naphthalene] the percent displacement of bound DTT at 200 µM (P-450cam mutant Y96A [3]; [11]) was 20%, the Total products [7] was 0.1 area/10^5 and the “Products (%): 1-ol” value ([7]; naphthalene) was 100%. The “Products (%): 2-ol” value ([7]; naphthalene) was 0%, the Total products [5] was 1.1 area/10^5 and the “Products (%): 1-ol” value ([5]; naphthalene) was 100%. For the same molecule, the “Products (%): 2-ol” value ([5]; naphthalene) was 0%, the Total products [6] was 2.4 area/10^5 and the “Products (%): 1-ol” value ([6]; naphthalene) was 100%. The “Products (%): 2-ol” value ([6]; naphthalene) was 0%, the Total products [8] was 0.7 area/10^5 and the “Products (%): 1-ol” value ([8]; naphthalene) was 100%. The “Products (%): 2-ol” value ([8]; naphthalene) was 0%, the Total products [9] was 1.4 area/10^5 and the “Products (%): 1-ol” value ([9]; naphthalene) was 100%. The “Products (%): 2-ol” value ([9]; naphthalene) was 0%, the Total products (wild type P450cam [10]) was 0.016 area/10^5 and the “Products (%): 1-ol” value (wild type P450cam [10]; naphthalene) was 100%. For the same molecule, the “Products (%): 2-ol” value (wild type P450cam [10]; naphthalene) was 0%.

For `c1ccc2c(c1)ccc1ccccc12` [Phenanthrene], the percent displacement of bound DTT at 200 µM (P-450cam mutant Y96A [3]; [11]) was 20%, the “NADH turnover?” value (P-450cam mutant Y96A [4]) was “+” and the Total products [7] was 0.065 area/10^6. The “Products (%): A” value ([7]; phenanthrene) was 27%, the “Products (%): B” value ([7]; phenanthrene) was 41% and the “Products (%): C” value ([7]; phenanthrene) was 3%. The “Products (%): D” value ([7]; phenanthrene) was 29%, the Total products [5] was 7.0 area/10^6 and the “Products (%): A” value ([5]; phenanthrene) was 49%. For the same molecule, the “Products (%): B” value ([5]; phenanthrene) was 23%, the “Products (%): C” value ([5]; phenanthrene) was 13% and the “Products (%): D” value ([5]; phenanthrene) was 15%. The Total products [6] was 4.5 area/10^6, the “Products (%): A” value ([6]; phenanthrene) was 41% and the “Products (%): B” value ([6]; phenanthrene) was 31%. The “Products (%): C” value ([6]; phenanthrene) was 5%, the “Products (%): D” value ([6]; phenanthrene) was 23% and the Total products [8] was 2.8 area/10^6. For the same molecule, the “Products (%): A” value ([8]; phenanthrene) was 35.5%, the “Products (%): B” value ([8]; phenanthrene) was 41% and the “Products (%): C” value ([8]; phenanthrene) was 9%. For the same molecule, the “Products (%): D” value ([8]; phenanthrene) was 14.5%, the Total products [9] was 1.6 area/10^6 and the “Products (%): A” value ([9]; phenanthrene) was 41%. For the same molecule, the “Products (%): B” value ([9]; phenanthrene) was 38%, the “Products (%): C” value ([9]; phenanthrene) was 11% and the “Products (%): D” value ([9]; phenanthrene) was 10%. For the same molecule, the Total products (wild type P450cam [10]) was 0.075 area/10^6, the “Products (%): A” value (wild type P450cam [10]; phenanthrene) was 38% and the “Products (%): B” value (wild type P450cam [10]; phenanthrene) was 15%. The “Products (%): C” value (wild type P450cam [10]; phenanthrene) was 12% and the “Products (%): D” value (wild type P450cam [10]; phenanthrene) was 35%.
